Source: patent publication US8476043B2, “Inhibitors for the soluble epoxide hydrolase” (The Regents of the University of California, priority 2004, dated 2013)
Converted amounts (≈) assume the structure as drawn. Read-outs that look alike come from different tables or passages of the source.

What was measured:
[1] = molecular target: T1, rat sEH (Rattus norvegicus, UniProt P80299); test: Relative turnover of arachidonic acid epoxides by rat renal cortex cytosol; format: biochemical; conditions: Table 19, EET mixture hydrolyzed to 30% by rat renal cortex cytosol
T1 construct: EET fatty acid was hydrolyzed to 30% by rat renal cortex cytosol; from tissue; host or cells: rat renal cortex cytosol
T1 sequence (P80299 1-554): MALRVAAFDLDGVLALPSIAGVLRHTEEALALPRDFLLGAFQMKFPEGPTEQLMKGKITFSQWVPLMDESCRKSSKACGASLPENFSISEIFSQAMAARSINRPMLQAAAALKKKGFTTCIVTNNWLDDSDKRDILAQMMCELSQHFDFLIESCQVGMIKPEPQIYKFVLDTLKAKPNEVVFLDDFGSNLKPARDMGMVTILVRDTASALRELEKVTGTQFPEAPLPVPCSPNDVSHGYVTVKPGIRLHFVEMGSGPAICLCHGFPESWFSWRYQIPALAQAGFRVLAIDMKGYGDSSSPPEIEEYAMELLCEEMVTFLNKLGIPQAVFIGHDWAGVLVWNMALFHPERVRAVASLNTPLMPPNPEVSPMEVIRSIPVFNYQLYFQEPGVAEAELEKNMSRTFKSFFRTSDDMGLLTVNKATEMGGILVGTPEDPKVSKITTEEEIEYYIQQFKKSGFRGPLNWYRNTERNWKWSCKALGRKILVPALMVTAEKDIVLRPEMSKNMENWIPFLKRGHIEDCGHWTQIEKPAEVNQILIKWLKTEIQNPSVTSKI
Protocol: For epoxy fatty acid hydrolysis, the soluble epoxide hydrolase prefers substrates with epoxide moieties that are more distant from the carboxyl terminal. Specifically the substrate preference decreases in the order of 14,15-EET>11,12-EET>8,9-EET>>>5,6-EET for the epoxides of arachidonic acid. Independently, the relative substrate turnover of the epoxy arachidonates were calculated at 0.1:8.1:14.3 when a 1:1:2 mixture of 8,9-, 11,12-, and 14,15-EET fatty acid was hydrolyzed to 30% by rat renal cortex cytosol. By considering the primary pharmacophore of the urea to be a transition-state analog of epoxide hydrolysis, inhibitors have now been developed which incorporate long aliphatic acids. These compounds are better substrate and transition state mimics than those incorporating shorter aliphatic acids. Accordingly, optimal soluble epoxide hydrolase inhibitors can be obtained by producing compounds with aliphatic acid substituents (i.e. a tertiary pharmacophore) which are separated from the primary pharmacophore by an equivalent distance as the terminal acid is separated from the epoxide in optimal substrates. Within the enzyme active site, epoxy fatty acids have been predicted to exist in an extended or pseudo-linear confirmation. Therefore, both the epoxy fatty acids and the aliphatic acid containing urea structures were approximated as two dimensional linear representations and measurements were made on each species. The critical measurements taken were distances (in angstroms) from the carboxylate hydroxyl to the urea carbonyl and the urea nitrogens.

[2] = Microsomal, NADPH dependent metabolic stability in rat hepatic microsomes; format: in vitro ADME; conditions: 1 μM, NADPH generating system, P450 dependent
Protocol: FIG. 6 is a graph illustrating the metabolic stabilities of 1-adamantyl-3-dodecyl urea (686) and 1-cyclohexyl-3-dodecyl urea (297) in rat hepatic microsomes. Microsomes were incubated with 1 μM 686 or 297 in the presence of an NADPH generating system. Data are expressed as mean±SD of triplicate experiments.
To evaluate the metabolic stability of these inhibitors, the microsomal and NADPH dependent metabolism of a number of potent sEH inhibitors was evaluated. […] The first step in the metabolic transformation of the n-alkyl to n-alkanoic acid derivatives is an NAPDH dependent process carried out by cytochrome P450 dependent omega hydroxylation in rodent and human hepatic tissue preparations (see FIG. 8). When in vivo metabolism was evaluated, evidence for the beta-oxidation of the alkanoic acid derivatives was also found (see FIG. 9).

[3] = Pharmacokinetics after oral gavage in mice; format: in vivo, male Swiss Webster mice
Protocol: Animals. Male Swiss Webster mice, 6 weeks-old, were obtained from Charles River (CA, USA). After 1-2 week acclimation period, healthy animals were assigned to study groups based on body-weight stratified randomization procedure. The body weight of animals used in all the experiments ranged from 28 g to 38 g.
Administration and measurement. Pharmacokinetic studies in mice used a 5 mg/kg dose of sEH inhibitors dissolved in corn oil and 4% DMSO administered orally. […] Then the samples were centrifuged at 6000 rpm for 5 min, and the ethyl acetate layer was dried under nitrogen. The residue was reconstituted in 25 μL of methanol, and aliquots (5 μL) were injected onto the LC-MS/MS system.
Analysis. Pharmacokinetics analysis was performed using SigmaPlot software system (SPSS science, Chicago, Ill.).

[4] = Solubility in water; format: physicochemical; conditions: for solubility of adamantyl compound relative to the corresponding cyclohexyl derivative: 789 vs. 772, 790 vs. 791, 686 vs. 297
[5] = molecular target: T2, mouse sEH (Mus musculus, UniProt P34914); test: sEH inhibition, spectrometric assay with racemic 4-nitrophenyl-trans-2,3-epoxy-3-phenylpropyl carbonate as substrate; format: biochemical; conditions: read-out: IC50 Mouse sEH
T2 construct: made in house
T2 sequence (P34914 1-554): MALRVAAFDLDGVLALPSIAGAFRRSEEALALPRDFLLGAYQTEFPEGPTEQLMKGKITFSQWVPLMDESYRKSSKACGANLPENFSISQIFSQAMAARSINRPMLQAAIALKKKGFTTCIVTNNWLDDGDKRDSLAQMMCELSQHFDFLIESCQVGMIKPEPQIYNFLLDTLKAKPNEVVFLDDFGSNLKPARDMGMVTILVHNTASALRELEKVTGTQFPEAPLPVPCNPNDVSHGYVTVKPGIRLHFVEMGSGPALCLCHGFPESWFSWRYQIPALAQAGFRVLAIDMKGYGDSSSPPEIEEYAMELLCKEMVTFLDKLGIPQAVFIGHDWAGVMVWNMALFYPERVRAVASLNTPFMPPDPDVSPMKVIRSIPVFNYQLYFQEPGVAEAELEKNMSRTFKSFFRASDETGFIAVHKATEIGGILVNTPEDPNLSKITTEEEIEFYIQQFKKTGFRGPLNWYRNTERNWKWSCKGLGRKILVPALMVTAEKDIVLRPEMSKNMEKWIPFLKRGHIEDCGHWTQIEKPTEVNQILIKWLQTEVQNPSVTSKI
Protocol: (§1) Recombinant mouse sEH and human sEH were produced in a baculovirus expression system and purified by affinity chromatography. […] Protein concentration was quantified by using the Pierce BCA assay using Fraction V bovine serum albumin as the calibrating standard.
(§2) IC50 values were determined in one of two method. One method uses racemic 4-nitrophenyl-trans-2,3-epoxy-3-phenylpropyl carbonate as substrate. […] Assays were performed in triplicate. […] The curve was generated from at least three separate runs, each in triplicate, to obtain the standard deviation (SD) given in Table 1 thru Table 4.

[6] = molecular target: T3, human sEH (Homo sapiens, UniProt P34913); test: as above; format: biochemical
T3 construct: made in house
T3 sequence (P34913 1-555): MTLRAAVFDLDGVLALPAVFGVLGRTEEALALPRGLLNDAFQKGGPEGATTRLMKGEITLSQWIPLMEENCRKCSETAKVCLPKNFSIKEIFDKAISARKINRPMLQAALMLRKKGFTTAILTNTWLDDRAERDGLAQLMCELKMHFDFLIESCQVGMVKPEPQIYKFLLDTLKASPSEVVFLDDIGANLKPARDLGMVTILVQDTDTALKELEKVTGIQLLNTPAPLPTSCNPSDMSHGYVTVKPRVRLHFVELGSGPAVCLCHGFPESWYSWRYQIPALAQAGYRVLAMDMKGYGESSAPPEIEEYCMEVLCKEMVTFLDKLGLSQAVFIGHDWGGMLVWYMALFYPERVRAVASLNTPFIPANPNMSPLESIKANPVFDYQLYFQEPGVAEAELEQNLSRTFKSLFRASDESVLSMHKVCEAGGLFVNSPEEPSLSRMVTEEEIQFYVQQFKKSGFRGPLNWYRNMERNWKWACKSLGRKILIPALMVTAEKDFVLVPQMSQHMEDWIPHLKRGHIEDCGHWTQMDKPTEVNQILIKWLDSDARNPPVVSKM
Protocol: as §1, §2

[7] = molecular target: T3, human sEH; test: sEH inhibition, fluorescent assay with cyano(6-methoxy-naphthalen-2-yl)methyl trans-[(3-phenyloxiran-2-yl)methyl]carbonate as substrate; format: biochemical; conditions: for IC50: Table 5, fluorescent-based assay, 0.96 nM human sEH, pH 7.0, [S] = 5 μM, read-out: Human sEH IC50
Protocol: as §1
Enzyme activity was measured by monitoring the appearance of 6-methoxy-2-naphthaldehyde. Assays were performed in triplicate. […] IC50 values were determined by regression of at least five datum points, with a minimum of two datum points in the linear region of the curve on either side of the IC50 values. The curve was generated from at least three separate runs, each in triplicate.

[8] = Oral treatment and pharmacokinetic study in a human subject or patient; format: in vivo; conditions: patient approaching end stage renal disease, brief oral treatment, low doses
Text: The discovery of the secondary and tertiary pharmacophores has also led to the employment of combinatorial chemistry approaches for establishing a wide spectrum of compounds having sEH inhibitory activity. The polar pharmacophores divide the molecule into domains each of which can be easily manipulated by common chemical approaches in a combinatorial manner, leading to the design and confirmation of novel orally available therapeutic agents for the treatment of diseases such as hypertension and vascular inflammation. The agents of the present invention treat such diseases while simultaneously increasing sodium excretion, reducing vascular and renal inflammation, and reducing male erectile dysfunction As shown below (see Example 51 and FIG. 13), alterations in solubility, bioavailability and pharmacological properties leads to compounds that can alter the regulatory lipids of experimental animals increasing the relative amounts of epoxy arachidonate derivatives when compared either to their diol products or to the proinflammatory and hypertensive hydroxyeicosatetraenoic acids (HETEs). Since epoxy arachidonates are anti-hypertensive and anti-inflammatory, altering the lipid ratios can lead to reduced blood pressure and reduced vascular and renal inflammation.
Serial bled blood samples (3-50 μL) were collected from finger tips into 50 μL heparinized capillary tube at various time points (0.5, 1, 2, 4, 6, 12 and 24 hr) after administration. These samples were used to measure parent compounds and their metabolites using LC-MS/MS as described above for experiments with mice. Blood samples were added 400 μL of distilled water and 25 μL of internal standard (500 ng/mL CTU), and vortexed. The blood samples were then extracted with 500 μL of ethyl acetate twice and the ethyl acetate layer was dried under nitrogen. The residue was reconstituted in 25 μL of methanol, and aliquots (10 μL) were injected onto the LC-MS/MS system as described above. Biological end points came from clinical chemistry samples run at The University of California Davis Clinical Laboratory and a series of 6 inflammatory markers including C reactive protein were run blind at the University of California Davis Department of Nephrology.

[9] = Solubility in oil; format: physicochemical; conditions: Table 5

Structure (SMILES): CCCCC/C=C\C/C=C\CC1OC1C/C=C\CCCC(=O)O (stereo not drawn) [8,9-EET]
- Relative EET Turnover [1]: 1

Structure (SMILES): CCCCC/C=C\C[C@H]1O[C@H]1C/C=C\C/C=C\CCCC(=O)O [11,12-EET]
- Relative EET Turnover [1]: 8.1

Structure (SMILES): CCCCCCCCCCCCNC(=O)NC12CC3CC(CC(C3)C1)C2 [Compound 686, 1-adamantyl-3-dodecylurea, reference compound]
- metabolic stability in microsomal preparations [2]: rapidly metabolized
- time to reach the maximum concentration [3]: 2 h
- solubility of adamantyl compound relative to the corresponding cyclohexyl derivative [4]: approximately 2 ×

Structure (SMILES): CCCCCNC(=O)OCCNC(=O)Nc1cccc(Cl)c1 [Compound 762, 1-(3-chlorophenyl)-3-(2-pentylaminocarbonyloxyethyl)urea]
- IC50 ([5]; Table 3, mean ± SD): 5300 ± 100 nM
- IC50 ([6]; Table 3, mean ± SD, read-out: IC50 Human sEH): 18000 ± 900 nM

Structure (SMILES): CCCCCC1OC1C/C=C\C/C=C\C/C=C\CCCC(=O)O (stereo not drawn) [14,15-EET]
- Relative EET Turnover [1]: 14.3

Structure (SMILES): CCCCCCCCC(NC(=O)CCCCCCCCCCCNC(=O)NC12CC3CC(CC(C3)C1)C2)C(=O)O (stereo not drawn) [Compound 1001, 2-[12-3-(Adamantan-1-yl-ureido)dodecanoylamino]decanoic acid]
- IC50 ([6]; Table 5, spectrometric-based assay, read-out: Human sEH IC50): 210 ± 10 nM
- fold decrease in inhibition potency on human sEH ([7]; 792 vs. 687, 1001, 1002 and 798 vs. the sulfonylamides): 25 fold
- IC50 [7]: 55 nM
- fold better water solubility than compound 687 [4]: 2.5 fold
- Solubility in water ([4]; Table 5): 63 µg/mL (≈ 112 µM)

Structure (SMILES): CCCCCOC(=O)CCCNC(=O)NC12CC3CC(CC(C3)C1)C2 [Compound 789, 1-(1-Adamantyl)-3-(3-pentoxycarbonylpropyl)urea]
- solubility of adamantyl compound relative to the corresponding cyclohexyl derivative [4]: approximately 2 ×

Structure (SMILES): CCCCC/C=C\C/C=C\C/C=C\CC1OC1CCCC(=O)O (stereo not drawn) [5,6-EET]
- Relative EET Turnover [1]: 0.1

Structure (SMILES): CCCCOC(=O)CCCCCCCCCCCNC(=O)NC12CC3CC(CC(C3)C1)C2 [Compound 800, 1-(1-Adamantyl)-3-(11-butoxycarbonylundecyl)urea]
- blood urea nitrogen [8]: dramatic reduction in blood urea nitrogen
- serum levels of C reactive protein [8]: dramatically reduced serum levels of C reactive protein
- serum profile of regulatory lipids [8]: altered the serum profile of regulatory lipids in a positive manner
- systolic and diastolic blood pressure [8]: reduced systolic and diastolic blood pressure

Structure (SMILES): CCCCCCCCCCNC(=O)NC12CC3CC(CC(C3)C1)C2 [Compound 790]
- solubility of adamantyl compound relative to the corresponding cyclohexyl derivative [4]: approximately 2 ×

Structure (SMILES): CCCCCCCCCCCCNC(=O)N[C@@H]1CCN(c2ccc(S(=O)(=O)N(C)C)c3nonc23)C1 [Compound 996]
- IC50 ([5]; Table 18a): 170 ± 10 nM
- IC50 ([6]; Table 18a, read-out: IC50 Human sEH): 120 ± 10 nM

Structure (SMILES): O=C(CCCCCCCCCCCNC(=O)NC12CC3CC(CC(C3)C1)C2)NS(=O)(=O)c1ccccc1 [Compound 914]
- Solubility in oil [9]: 5,000 μg/mL
- IC50 [7]: 1.9 nM
- fold improvement in inhibition of the human enzyme ([7]; compared with 687 (compound 4)): about 1.5 fold

Structure (SMILES): O=C(O)CCCCCCCCCCCNC(=O)NC12CC3CC(CC(C3)C1)C2 [Compound 687, 1-(1-adamantyl)-3-(12-dodecanoic acid)urea]
- metabolic stability in microsomal preparations [2]: stable
- time to reach the maximum concentration [3]: 0.5 h
